Source: the NIST ThermoML archive (doi:10.1016/j.fluid.2012.01.018)
± gives the expanded uncertainty stated by the source.

Settings: 101.33 kPa, Liquid, Falling or rolling sphere viscometry

SMILES | viscosity (298.15 K) [mPa·s] | viscosity (308.15 K) [mPa·s] | viscosity (318.15 K) [mPa·s] | viscosity (328.15 K) [mPa·s] | viscosity (338.15 K) [mPa·s] | viscosity (348.15 K) [mPa·s]
COCC[N+]1(C)CCCCC1.O=S(=O)([N-]S(=O)(=O)C(F)(F)F)C(F)(F)F | 102.6 ± 3.1 | 63.22 ± 1.4 | 41.92 ± 0.91 | 29.43 ± 0.64 | 21.53 ± 0.46 | 16.32 ± 0.35
COCC[N+]1(C)CCOCC1.O=S(=O)([N-]S(=O)(=O)C(F)(F)F)C(F)(F)F | 306.1 ± 19 | 155.9 ± 6.4 | 90.68 ± 2.5 | 57.23 ± 1.2 | 38.69 ± 0.84 | 27.54 ± 0.6
COCC[N+]1(C)CCCC1.O=S(=O)([N-]S(=O)(=O)C(F)(F)F)C(F)(F)F | 54.52 ± 1.1 | 36.94 ± 0.8 | 26.41 ± 0.57 | 18.23 ± 0.39 | 14.06 ± 0.3 | 11.07 ± 0.24
